Assay results from patent US9630922B2, “3-spiro-7-hydroxamic acid tetralins as HDAC inhibitors” (Forma Therapeutics, Inc., priority 2015, dated 2017).

Biological target: T1, HDAC6 (Homo sapiens, UniProt Q9UBN7)
T1 construct: Full length human recombinant HDAC6 protein was expressed in baculoviral system; made in house; host or cells: baculoviral system
T1 sequence (Q9UBN7 1-1215): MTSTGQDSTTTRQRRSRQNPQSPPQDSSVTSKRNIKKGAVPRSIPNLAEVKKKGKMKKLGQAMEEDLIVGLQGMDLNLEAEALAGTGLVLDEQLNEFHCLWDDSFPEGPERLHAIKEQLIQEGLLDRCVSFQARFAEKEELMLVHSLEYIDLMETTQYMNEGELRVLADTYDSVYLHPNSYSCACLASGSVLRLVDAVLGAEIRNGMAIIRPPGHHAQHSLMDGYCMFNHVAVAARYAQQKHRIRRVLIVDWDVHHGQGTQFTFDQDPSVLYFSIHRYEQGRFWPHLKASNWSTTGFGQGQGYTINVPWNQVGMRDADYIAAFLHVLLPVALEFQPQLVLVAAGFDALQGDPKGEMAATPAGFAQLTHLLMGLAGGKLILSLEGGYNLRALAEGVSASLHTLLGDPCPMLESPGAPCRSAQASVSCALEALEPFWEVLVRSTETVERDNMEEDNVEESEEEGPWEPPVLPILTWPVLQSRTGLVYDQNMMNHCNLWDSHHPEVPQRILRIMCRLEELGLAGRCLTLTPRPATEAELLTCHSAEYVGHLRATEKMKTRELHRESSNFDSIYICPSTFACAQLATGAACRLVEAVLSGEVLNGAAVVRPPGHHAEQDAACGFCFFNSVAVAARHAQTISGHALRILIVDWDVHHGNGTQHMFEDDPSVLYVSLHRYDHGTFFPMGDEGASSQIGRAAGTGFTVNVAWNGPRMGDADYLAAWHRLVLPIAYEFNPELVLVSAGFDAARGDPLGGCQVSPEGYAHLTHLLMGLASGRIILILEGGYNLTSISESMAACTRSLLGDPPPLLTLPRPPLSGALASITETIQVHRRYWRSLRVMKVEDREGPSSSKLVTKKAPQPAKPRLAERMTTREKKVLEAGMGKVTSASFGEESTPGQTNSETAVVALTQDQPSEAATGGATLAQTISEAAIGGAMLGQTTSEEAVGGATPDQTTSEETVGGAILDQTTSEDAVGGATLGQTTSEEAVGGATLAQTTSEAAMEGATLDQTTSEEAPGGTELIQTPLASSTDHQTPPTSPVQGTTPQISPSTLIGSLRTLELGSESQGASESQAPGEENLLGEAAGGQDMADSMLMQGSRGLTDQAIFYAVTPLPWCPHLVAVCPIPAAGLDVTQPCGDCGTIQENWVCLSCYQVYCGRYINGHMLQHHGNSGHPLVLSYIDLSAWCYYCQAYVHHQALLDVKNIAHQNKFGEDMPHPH
Experiment: In vitro Histone Deacetylase Assay (enzymatic HDAC6 electrophoretic mobility shift assay)
Format: biochemical
Settings: full length human recombinant HDAC6, 1 nM enzyme, 2 μM peptide substrate RHKK(Ac)-NH2, 25° C.; read-out: HDAC6 activity range
Method in brief: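 Full-length recombinant human HDAC6 (baculovirus-expressed, 1 nM) was incubated at 25 °C with 2 μM fluorescent RHKK(Ac)-NH2 peptide in HEPES pH 7.5, KCl, BSA, Triton X-100 and 1% DMSO, then SDS-quenched. Substrate and product were separated by microfluidic mobility shift, and IC50 came from 4-parameter fits of 12-point, 3-fold dilution curves.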

## O=C(NO)c1ccc2c(c1)CC[C@@]1(CCCN(C3CC3)C1=O)C2 (single isomer, unassigned) [Compound I-193]
  IC50: ≤ 0.1 µM

## Cc1ccccc1CN1CC2(CCc3cc(C(=O)NO)ccc3C2)CC1=O (single isomer, unassigned) [Compound I-225]
  IC50: ≤ 0.1 µM

## COc1cccc(N2CC[C@]3(CCc4cc(C(=O)NO)ccc4C3)C2=O)c1 [Compound I-108, (R)-N-hydroxy-1′-(3-methoxyphenyl)-2′-oxo-3,4-dihydro-1H-spiro[naphthalene-2,3-pyrrolidine]-6-carboxamide]
  IC50: ≤ 0.1 µM

## O=C(NO)c1ccc2c(c1)CC[C@@]1(CCN(c3ccccn3)C1=O)C2 [Compound I-21, (S)-N-hydroxy-2′-oxo-1′-(pyridin-2-yl)-3,4-dihydro-1H-spiro[naphthalene-2,3′-pyrrolidine]-6-carboxamide]
  IC50: ≤ 0.1 µM

## CC(C)N1CC2(CCc3cc(C(=O)NO)ccc3C2)CC1=O (single isomer, unassigned) [Compound I-213]
  IC50: ≤ 0.1 µM

## O=C(NO)c1ccc2c(c1)CC[C@]1(CCN(c3cncc(Cl)c3)C1=O)C2 [Compound I-139, (R)-1′-(5-chloropyridin-3-yl)-N-hydroxy-2′-oxo-3,4-dihydro-1H-spiro[naphthalene-2,3′-pyrrolidine]-6-carboxamide]
  IC50: ≤ 0.1 µM

## CN1CCC2(CCc3cc(C(=O)NO)ccc3S2(=O)=O)C1=O (stereo not drawn) [Compound I-244, N-hydroxy-1-methyl-2-oxospiro[pyrrolidine-3,2′-thiochromane]-6′-carboxamide 1′,1′-dioxide]
  IC50: > 0.5 µM

## O=C(NO)c1ccc2c(c1)CCC1(CC(=O)N(c3ccc(F)cc3)C1)C2 (single isomer, unassigned) [Compound I-227]
  IC50: ≤ 0.1 µM

## O=C(NO)c1ccc2c(c1)CC[C@]1(CCN(CC(F)(F)F)C1=O)C2 [Compound I-165, (R)-N-hydroxy-2′-oxo-1′-(2,2,2-trifluoroethyl)-3,4-dihydro-1H-spiro[naphthalene-2,3′-pyrrolidine]-6-carboxamide]
  IC50: ≤ 0.1 µM

## CC(C)CCN1CC[C@@]2(CCc3cc(C(=O)NO)ccc3C2)C1=O [Compound I-62, (S)-N-hydroxy-1′-isopentyl-2′-oxo-3,4-dihydro-1H-spiro[naphthalene-2,3′-pyrrolidine]-6-carboxamide]
  IC50: 0.1 to 0.5 µM

## COc1ccc(N2CC[C@@]3(CCc4cc(C(=O)NO)ccc4C3)C2=O)c(F)c1 [Compound I-127, (2S)-1′-(2-fluoro-4-methoxyphenyl)-N-hydroxy-2′-oxo-3,4-dihydro-1H-spiro[naphthalene-2,3′-pyrrolidine]-6-carboxamide]
  IC50: ≤ 0.1 µM

## O=C(NO)c1ccc2c(c1)CCC1(CCN(Cc3ccccc3)C1=O)O2 (stereo not drawn) [Compound I-232, 1′-benzyl-N-hydroxy-2′-oxospiro[chromane-2,3′-pyrrolidine]-6-carboxamide]
  IC50: 0.1 to 0.5 µM

## O=C(NO)c1ccc2c(c1)CC[C@]1(CCN(Cc3cnc(Cl)s3)C1=O)C2 [Compound I-30, (R)-1′-((2-chlorothiazol-5-yl)methyl)-N-hydroxy-2′-oxo-3,4-dihydro-1H-spiro[naphthalene-2,3′-pyrrolidine]-6-carboxamide]
  IC50: ≤ 0.1 µM

## CC(C)CN1CCCC2(CCc3cc(C(=O)NO)ccc3C2)C1=O (single isomer, unassigned) [Compound I-190]
  IC50: ≤ 0.1 µM

## COCCN1CC[C@]2(CCc3cc(C(=O)NO)ccc3C2)C1=O [Compound I-36, (R )-N-hydroxy-1′-(2-methoxyethyl)-2′-oxo-3,4-dihydro-1H-spiro[naphthalene-2,3′-pyrrolidine]-6-carboxamide]
  IC50: ≤ 0.1 µM

## O=C(NO)c1ccc2c(c1)CC[C@@]1(CCN(Cc3ccncc3)C1=O)C2 [Compound I-15, (S)-N-hydroxy-2′-oxo-1′-(pyridin-4-ylmethyl)-3,4-dihydro-1H-spiro[naphthalene-2,3′-pyrrolidine]-6-carboxamide]
  IC50: ≤ 0.1 µM

## CC(C)CCN1CC[C@]2(CCc3cc(C(=O)NO)ccc3C2)C1=O [Compound I-34]
  IC50: ≤ 0.1 µM

## O=C(NO)c1ccc2c(c1)CCC1(CCN(Cc3nc4ccccc4[nH]3)CC1)O2 [II-2, 1′-((1H-benzo[d]imidazol-2-yl)methyl)-N-hydroxyspiro[chromane-2,4′-piperidine]-6-carboxamide]
  IC50: > 0.5 µM

## COCCCN1CCCC2(CCc3cc(C(=O)NO)ccc3C2)C1=O (single isomer, unassigned) [Compound I-187]
  IC50: ≤ 0.1 µM

## O=C(NO)c1ccc2c(c1)CC[C@]1(CCN(Cc3ccncc3)C1=O)C2 [Compound I-14, (R)-N-hydroxy-2′-oxo-1′-(pyridin-4-ylmethyl)-3,4-dihydro-1H-spiro[naphthalene-2,3′-pyrrolidine]-6-carboxamide]
  IC50: > 0.5 µM

## N#Cc1ccccc1N1CC[C@@]2(CCc3cc(C(=O)NO)ccc3C2)C1=O [Compound I-174, (S)-1′-(2-cyanophenyl)-N-hydroxy-2′-oxo-3,4-dihydro-1H-spiro[naphthalene-2,3′-pyrrolidine]-6-carboxamide]
  IC50: ≤ 0.1 µM

## O=C(NO)c1ccc2c(c1)CC[C@@]1(CCN(c3cncc(Cl)c3)C1=O)C2 [Compound I-138, (S)-1′-(5-chloropyridin-3-yl)-N-hydroxy-2′-oxo-3,4-dihydro-1H-spiro[naphthalene-2,3′-pyrrolidine]-6-carboxamide]
  IC50: ≤ 0.1 µM

## COc1ccc(CN2CCC3(CCc4cc(C(=O)NO)ccc4O3)CC2)cc1 [II-1, N-hydroxy-1′-(4-methoxybenzyl)spiro[chromane-2,4′-piperidine]-6-carboxamide]
  IC50: > 0.5 µM

## O=C(NO)c1ccc2c(c1)CC[C@@]1(CCCN(c3ccccc3)C1=O)C2 (single isomer, unassigned) [Compound I-181]
  IC50: ≤ 0.1 µM

## COc1ccncc1N1CC[C@@]2(CCc3cc(C(=O)NO)ccc3C2)C1=O [Compound I-142, (S)-N-hydroxy-1′-(4-methoxypyridin-3-yl)-2′-oxo-3,4-dihydro-1H-spiro[naphthalene-2,3′-pyrrolidine]-6-carboxamide]
  IC50: ≤ 0.1 µM

## O=C(NO)c1ccc2c(c1)CCC1(CC(=O)N(c3cccnc3)C1)C2 (single isomer, unassigned) [Compound I-221]
  IC50: ≤ 0.1 µM

## O=C(NO)c1ccc2c(c1)CC[C@@]1(CCN(Cc3cc(Cl)ccc3Cl)C1=O)C2 [Compound I-74, (S)-1′-(2,5-dichlorobenzyl)-N-hydroxy-2′-oxo-3,4-dihydro-1H-spiro[naphthalene-2,3′-pyrrolidine]-6-carboxamide]
  IC50: 0.1 to 0.5 µM

## COc1cc(F)cc(N2CC[C@@]3(CCc4cc(C(=O)NO)ccc4C3)C2=O)c1 [Compound I-148, (2S)-1′-(3-fluoro-5-methoxyphenyl)-N-hydroxy-2′-oxo-3,4-dihydro-1H-spiro[naphthalene-2,3′-pyrrolidine]-6-carboxamide]
  IC50: ≤ 0.1 µM

## O=C(NO)c1ccc2c(c1)CC[C@@]1(CCN(Cc3ccccc3OC(F)(F)F)C1=O)C2 [Compound I-69, (S)-N-hydroxy-2′-oxo-1′-(2-(trifluoromethoxy)benzyl)-3,4-dihydro-1H-spiro[naphthalene-2,3′-pyrrolidine]-6-carboxamide]
  IC50: 0.1 to 0.5 µM

## O=C(NO)c1ccc2c(c1)CCC1(CCN(CC3CCOCC3)C1=O)O2 (stereo not drawn) [Compound I-234, N-hydroxy-2′-oxo-1′-((tetrahydro-2H-pyran-4-yl)methyl)spiro[chromane-2,3′-pyrrolidine]-6-carboxamide]
  IC50: > 0.5 µM

## O=C(NO)c1ccc2c(c1)CC[C@]1(CC(=O)N(Cc3cccnc3)C1)C2 (single isomer, unassigned) [Compound I-226]
  IC50: ≤ 0.1 µM

## CC(C)CN1CC2(CCc3cc(C(=O)NO)ccc3C2)CC1=O (single isomer, unassigned) [Compound I-212]
  IC50: ≤ 0.1 µM

## O=C(NO)c1ccc2c(c1)CC[C@]1(CCN(C/C=C/c3ccccc3)C1=O)C2 [Compound I-37, (R)-1′-cinnamyl-N-hydroxy-2′-oxo-3,4-dihydro-1H-spiro[naphthalene-2,3′-pyrrolidine]-6-carboxamide]
  IC50: ≤ 0.1 µM
